For seven molecules, IC50 and Ki results are on record in ChEMBL document CHEMBL1122762, “(+/-)-3-(4-Amino-1H-pyrrolo[2,3-d]pyrimidin-1-yl)-5-(hydroxymethyl)- (1 alpha,2 alpha,3 beta,5 beta)-1,2-cyclopentanediol, the carbocyclic analogue of tubercidin” (J Med Chem, 1984).

Test [1] concerns HEp-2. The test can be described thus: Compound was evaluated for cytotoxicity against H.Ep.-2 cells, and concentration required to inhibit the growth of treated cells to 50% of untreated control. It counts as functional, cell-based. The following applies: Homo sapiens.
Test [2] deals with L1210 (1565). The test is described as follows: (§1) Compound was evaluated for cytotoxicity against L-1210 (AK-) cells, and concentration required to inhibit the growth of treated cells to 50% of untreated control. It counts as functional, cell-based. The following applies: Mus musculus.
Test [3] concerns L1210 (1565). The test is described as follows: Compound was evaluated for cytotoxicity against L-1210 cells, and concentration required to inhibit the growth of treated cells to 50% of untreated control. It counts as functional, cell-based. The following applies: Mus musculus.
For test [4], the system named is S-adenosyl-L-homocysteinase (Mus musculus). The test can be described thus: Inhibition of S-adenosyl-L-homocysteinase from L-1210 cells.
Test [5] has as its system HEp-2. The test is described as follows: Compound was evaluated for cytotoxicity against H.Ep.-2 cells and concentration required to inhibit the growth of treated cells to 50% of untreated control was reported. Format: functional, cell-based. The following applies: Homo sapiens.
Test [6] concerns L1210 (1565). The description is as §1. The following applies: Mus musculus. It counts as functional, cell-based. The source holds these as a separate data set.
The subject of test [7] is HEp-2. The test is described as follows: Compound was evaluated for cytotoxicity against H.Ep.-2 (AK-) cells and concentration required to inhibit the growth of treated cells to 50% of untreated control. Format: functional, cell-based. The following applies: Homo sapiens.

Regarding `Nc1ncnc2c1ccn2[C@@H]1C[C@H](CO)[C@H](O)C1O` (stereo not given in full), the values for the IC50 in the test on HEp-2 [1], in the test on L1210 (1565) [2] and with L1210 (1565) [3] were 1.4 µM, more than 40 µM and 4 µM, respectively. In test [4], the Ki amounted to 44 µM.

In turn, `Nc1nccc2c1ncn2[C@@H]1O[C@H](CO)[C@@H](O)[C@H]1O` gave an IC50 in the test with HEp-2 [1] of 20 µM. In other words, the double-digit micromolar range.

In the test with HEp-2 [5], `Nc1[nH]ccc2ncnc1-2` yielded an IC50 of 7 µM.

`Nc1ncnc2[nH]ccc12` displayed an IC50 in the test on HEp-2 [1] of more than 70 µM.

As to `Nc1nccc2c1ncn2[C@@H]1C[C@H](CO)[C@H](O)C1O` (stereo not given in full), the IC50 with HEp-2 [1] was determined as 0.6 µM; in the test with L1210 (1565) [2], 1 µM; with L1210 (1565) [6] it was 1 µM; in the test on L1210 (1565) [3], 4 µM.

In the case of `Nc1ncnc2c1ncn2[C@@H]1O[C@H](CO)[C@@H](O)[C@H]1O` [ADENOSINE], the figures for the IC50 in the test with HEp-2 [7] and in the test with HEp-2 [1] were 20 µM and 0.7 µM, respectively.

Take `Nc1ncnc2c1ccn2[C@@H]1O[C@H](CO)[C@@H](O)[C@H]1O` [TUBERCIDIN]: the IC50 was more than 3 µM with HEp-2 [7] and 0.002 µM in the test on HEp-2 [1].
